The values below come from EP0719267B1, “SECOND MESSENGER CELL SIGNALING INHIBITORS” (CELL THERAPEUTICS, INC., priority 1993, dated 1994).

The subject of assay [1] is ICAM-1. Nature of the assay: ICAM expression on TNF-stimulated HUVEC (flow cytometry). It is filed as cell-based, human. On the procedure: Assay results reported in figures 63A and 63B, illustrate that inventive compound no. […] HUVEC were stimulated with TNFα (20 ng/ml) for 5 hours and stained using fluorescent antibodies to ICAM-1 or VCAM-1. Cell surface expression was analyzed by flow cytometry. All values were normalized to the peak mean fluorescence of the positive control (=100%). Average levels of induction using TNFα- stimulation were 20-fold higher for ICAM-1 and over 50-fold higher for VCAM-1 from that of nonstimulated controls, as shown in figures 63 and 63B.
Figures 73A and 73B illustrate inhibition by inventive compound no. 58 of VCAM or ICAM expression, respectively, in HUVEC activated by TNF. Cells were stimulated for 8 hours in the presence or absence of inventive compounds and stained with fluorescent antibodies to VCAM or ICAM and analyzed by flow cytometry.
In general terms: Flow cytometry measures light scatter and fluorescence of single cells or particles in a stream.

The test system of assay [2] is THP-1 cell adhesion to IL-1-activated HUVEC. Put plainly: THP-1 cell adhesion to activated HUVEC. Type of assay: cell-based, human. On the procedure:
This example illustrates inhibitive activity of compounds nos. 50 and 57 on THP-1 cell adhesion to IL-1-activated HUVEC. In an investigative assay, HUVEC were stimulated with IL-1 (10 ng/ml), both in the absence and presence of varying concentrations of drugs for 8 hours in a 96-well microtiter plate. In the wellplate, human monocytic leukemia cell line THP-1 cells were added at 50,000 cells per well. The THP-1 cells were pre-incubated with BCECF, a fluorescence dye that can be used to measure cell number using a fluorescence plate reader. After 10 minutes at 37 °C, the microtiter plate was inverted and spun at 900 rpm. The remaining adhering THP-1 cells were then analyzed.
Inventive compound no. […] HUVEC were stimulated with 20 ng/ml IL-1β or 15 ng/ml TNFα for 6 hours. Fluorescence labeled (BCECF-AM) THP-1 cells were allowed to adhere to the HUVEC for 20 minutes, washed once and the amount of fluorescence remaining analyzed on a fluorescence plate reader. The results, reported in figures 62A and 62B (TNFα or IL-1β, respectively), show inhibition of THP-1 adhesion to HUVEC.
Figures 72A and 72B illustrate that inventive compound no. 58 inhibited THP-1 cell adhesion to either TNF or IL-1-stimulated HUVEC, respectively. Procedurally, HUVEC were stimulated with TNF or IL-1 for 8 hours and THP-1 cells added for 20 minutes. The HUVEC were then washed and analyzed for adherence. Inventive compound no. 58 inhibited adhesion of THP-1 cells to HUVEC with an IC50 of approximately 1 µM for both TNF and IL-1.

Assay [3] deals with Balb/3T3 cells. Nature of the assay: PDGF-induced proliferation of Balb/3T3 cells. It is filed as cell-based, murine. How it is done: Balb/3T3 cells respond vigorously to PDGF stimulation, and are useful in vitro models for further study of PDGF-induced proliferation. Disregulated PDGF-proliferative response has been linked to a variety of diseases, including, e.g., restenosis, atherosclerosis, fibrosis, and tumor cell angiogenesis. Cells were plated in low serum-containing medium for 24 hours prior to stimulation with various concentrations of inventive compound no. 45. PDGF-BB was added at constant 10 µM concentrations. Tritiated thymidine was added and cells harvested for scintillation counting 24 hours later. Figure 15 illustrates a dose response curve from this assay, including an IC50 value of approximately 0.08 µM, exemplifying inhibitory activity of the tested compound.
In another investigation similar to the Balb/3T3 proliferation assay of Example 32, IC50 and ID50 values for inventive compounds nos. 70, 45, 59 and 58 were determined. LD50 values were determined using a cytotoxicity assay, as in Example 32. In these assays, Balb/3T3 cells, stimulated with PDGF and treated with one of the above inventive compounds in a manner identical to the tritiated thymidine procedure above, were incubated instead with a viable dye BCECF, a fluorescent dye. Fluorescence was measured using a fluorescent plate reader. […] Figure 17 illustrates assay results by comparing […] value against LD50 values for the inventive compounds tested. Most compounds tested were non-cytotoxic yet were significant inhibitors of proliferation.
Inventive compounds nos. 77,7 and 78 were added at various concentrations one hour prior to PDGF stimulation. PDGF-BB was added at a constant 10 µM concentrations along with tritiated thymidine. The cells were allowed to incubate for one day, following addition of PDGF and tritiated thymidine. 24 Hours later, the cells were harvested and counted by liquid scintillation counting. Results for compounds nos.77, 7 and 78 are shown in figures 26A, 26B and 26C, respectively. Background counts were approximately 1% of control levels.
Results obtained for compound no. 50 in the PDGF-induced proliferation of Balb/3T3 cells (Example 32), reported in figure 28, illustrate the inhibitive properties of this compound on proliferation induced by PDGF, representing significant inhibition at concentrations as low as 2 µM. […] 50, are capable of reducing tumor cell growth by blocking oncogene-induced events.
Figure 66 reports that inventive compound no. 45 inhibited PDGF-induced murine BALB/3T3 proliferation. Procedurally, cells were rested overnight in 0.2% serum and stimulated with 25 ng/ml PDGF. Compound no. 45 was added 1 hour prior to stimulation. Cells were pulsed with ^3H-TdR 24 hours later and harvested for scintillation counting 4 hours later.
Figures 66A and 66B are a dose response and cytoxicity curves, respectively, for inhibition of proliferation in Balb/3T3 cells by inventive compound no. 58. In the assay protocol, cells were starved overnight in 0.5% serum containing medium, followed by stimulation with 20 ng/ml PDGF for 24 hours. The cells were labeled with ^3H-TdR for 4 hours and harvested and counted by scintillation. Figure 66B illustrates that inventive compound no.
Figure 68 illustrates an effect of the delayed addition of inventive compound no. 58 to Balb/3T3 proliferation in response to PDGF-BB. Cells were stimulated with PDGF (20 ng/ml) and inventive compound no. 58 added either simultaneous with PDGF (0) or at various times after addition of PDGF, up to 6 hours later. At 24 hours, the cells were pulsed with ^3H-TdR and counted by scintillation four hours later. […] 58 was added as late as 20 hours after PDGF.
Figure 69 illustrates that inventive compound no. […] In the assay protocol, cells were serum starved for 24 hours before adding either 20 ng/ml PDGF or 10% serum. The cells were pulsed with ^3HTdR 24 hours later. Inventive compound no.

Usually IC50 stands for the concentration needed to halve the response being measured. Higher therefore signals weaker potency in that assay.

For the molecule `CCCCCCCCNCC(O)CCCCCCCCCn1c(=O)c2c(ncn2C)n(C)c1=O` (centres unmarked) [compound no. 45], the “ICAM-1 cell surface expression” value in assay [1] (TNFα (20 ng/ml), 5 hours) was “inhibited adhesion receptor expression on HUVEC”. The “inhibition of THP-1 adhesion” value in assay [2] (20 ng/ml IL-1β or 15 ng/ml TNFα, 6 hours) is “inhibited adhesion of monocytic leukemia cells (THP-1) to IL-1β or TNFα-activated HUVEC”. In addition, the IC50 in assay [3] (Mus musculus, BALB/3T3, PDGF-BB, low serum 24 hours) is about 80 nM.
On to `CCCCCCCCCCCCNCC(O)CCCCCCCCCn1c(=O)c2c(ncn2C)n(C)c1=O` (centres unmarked) [compound no. 50, 1-(11-Dodecylamino-10-hydroxyundecyl)-3,7-dmethylxanthine], for which the “inhibition of THP-1 adhesion” value in assay [2] (IL-1 (10 ng/ml), 8 hours) is on record as “significantly inhibited THP-1 adhesion, even at low concentratations”. For the same molecule, the minimal effective concentration in assay [3] (Mus musculus, BALB/3T3, fig. 28, read-out: concentrations giving significant inhibition) was at least 2 µM.
For the molecule `COc1cc(CNCC(O)CCCCCCCCCn2c(=O)c3c(ncn3C)n(C)c2=O)cc(OC)c1OC` (centres unmarked) [compound no. 58, 1-[11-(3,4,5-Trimethoxybenzylamino)-10-hydroxyundecyl]-3,7-dimethylxanthine], the ICAM expression result in assay [1] (TNF, 8 hours) is reported as “inhibition”. Further, the IC50 in assay [2] (Homo sapiens, TNF-stimulated HUVEC, 8 hours) was about 1000 nM; in assay [3] (Mus musculus, BALB/3T3, 20 ng/ml PDGF, 24 hours), 200 to 500 nM. Also, the “PDGF-induced versus serum-induced proliferation” value in assay [3] (20 ng/ml PDGF or 10% serum) is given as “inhibited PDGF- induced proliferation in Balb/3T3 cells to a greater extent than serum-induced proliferation”. In addition, in assay [3] (10% serum), the “effect on serum-induced proliferation” value was “did not have a significant effect on serum-induced Balb/3T3 proliferation”. The “inhibition with delayed addition” value in assay [3] (added as late as 20 hours after PDGF) is given as “nearly complete inhibition in proliferation”.
